Results taken from patent US20250332173A1, “COMPOUNDS AND METHODS FOR MODULATING NUCLEIC ACID SPLICING” (REMIX THERAPEUTICS INC., priority 2021, published 2025).

How the values were obtained:
SMN2 mRNA = assay: RT-qPCR splicing assay, SMN2 canonical junction (CJ) mRNA; type: cell-based, human; settings: Homo sapiens; Table 5 panel; canonical junction qPCR; compound concentration having 50% response in CJ decrease; read-out: SMN2 IC50 (decrease in CJ mRNA levels)
Outline: (§1)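 Canonical-junction transcript levels in compound-treated A673 or K562 cells (24 h, up to 10 uM final) were determined from lysates by RT-qPCR with housekeeping-gene normalization.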

Target C [1] = assay: RT-qPCR splicing assay panel, Target C canonical junction (CJ) mRNA; type: cell-based, human; settings: Homo sapiens; Table 5 panel; canonical junction qPCR; compound concentration having 50% response in CJ decrease; read-out: Target C IC50 (decrease in CJ mRNA levels)
Outline: as §1

[2] = system: K562 (human chronic myelogenous leukemia) cells; assay: Cell Titer Glo 2.0 cell viability assay; type: cell-based; settings: Homo sapiens, K562, 72 h, K562 cells, 72 hours, Cell Titer Glo 2.0; read-out: K562 GI50
Protocol: Compounds described herein were screened for toxicity in K562 (human chronic myelogenous leukemia) cells using a Cell Titer Glo 2.0 assay.
Cells were plated at 500 cells/well (K562 cells) in 45 μL of IMDM supplemented with 1000 FBS in a 384-well opaque plate. Wells containing only medium were used as a blank control. Test compounds (e.g., compounds ofFormula (I), (II), (III), (IV), (V), (VI), (VII), (VIII), and (IX)) were first serially diluted in DMSO then diluted 1:100 with IMDM+10% FBS. The final concentration of DMSO was 0.1% in each well. The cells were incubated for 72 hours at 37° C. and 500 CO2 before assaying with Cell Titer Glo 2.0 reagent.

Target C [3] = assay: HiBiT protein abundance assay, Target C (Promega Nano-Glo HiBiT Lytic Detection System, knock-in K562 cell line); type: cell-based, human; settings: Homo sapiens, K562, 24 h, HiBiT K562 cell line, 24 hours, top dose 10 μM; read-out: Effect on protein abundance, Target C (IC50 category)
Outline: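 Protein abundance was read by Nano-Glo HiBiT lytic luminescence after 24 h compound exposure (10-point, threefold series from 10 μM final) of HiBiT knock-in K562 cells. Parental K562 served as baseline; the 50%-abundance concentration was interpolated from a four-parameter logistic fit.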

| Compound | IC50 (SMN2 mRNA) [µM] | IC50 (Target C [1]) [µM] | GI50 [2] [µM] | IC50 (Target C [3]) [µM] |
| --- | --- | --- | --- | --- |
| Cc1nc2c(F)cc(-c3cc(F)c4c(=O)n(C5CCNC6(CC6)C5)ccc4c3)cc2o1 (centres unmarked) [Compound 417, 2-{4-azaspiro[2.5]octan-7-yl}-8-fluoro-6-(4-fluoro-2-methyl-1,3-benzoxazol-6-yl)isoquinolin-1-one] | < 0.1 | 0.1 to 1 | < 0.1 | < 0.1 |
| Cc1cc(-c2cc(F)c3c(=O)n(C4CCNC5(CC5)C4)ccc3c2)cc2c1nc(C)n2C (centres unmarked) [Compound 429] | > 10 | > 10 | 1 to 10 | 0.1 to 1 |
| Cc1cn2nc(-c3cc(C)c4c(=O)n(C5CCNC6(CC6)C5)ccc4c3)cc(C)c2n1 (stereo in doubt) [Compound 398, (R)-6-(2,8-dimethylimidazo[1,2-b]pyridazin-6-yl)-8-methyl-2-(4-azaspiro[2.5]octan-7-yl)isoquinolin-1(2H)-one] | < 0.1 | < 0.1 | < 0.1 | < 0.1 |
| Cc1cn2cc(-c3ccc4c(=O)n([C@@H]5CCCNC5)ccc4c3)cc(F)c2n1 (single isomer, unassigned) [Compound 403] | < 0.1 | 1 to 10 | 1 to 10 | 1 to 10 |
| Cc1cn2cc(-c3cc(S(C)(=O)=O)c4c(=O)n(C5CCNCC5)ccc4c3)cc(F)c2n1 [Compound 409, 6-(8-fluoro-2-methylimidazo[1,2-a]pyridin-6-yl)-8-(methylsulfonyl)-2-(piperidin-4-yl)isoquinolin-1(2H)-one] | > 10 | > 10 | > 10 | > 10 |
| Cc1cn2cc(-c3ccc4c(=O)n(C5CCNCC5)cc(C)c4c3)cc(F)c2n1 [Compound 440, 6-{8-fluoro-2-methylimidazo[1,2-a]pyridin-6-yl}-4-methyl-2-(piperidin-4-yl)isoquinolin-1-one] | < 0.1 | 0.1 to 1 | < 0.1 | 0.1 to 1 |
| Cn1cc2c(n1)CCN(c1cc(F)c3c(=O)n(C4CCNCC4)cnc3c1)C2 [Compound 365, 5-fluoro-7-(2-methyl-2,4,6,7-tetrahydro-5H-pyrazolo[4,3-c]pyridin-5-yl)-3-(piperidin-4-yl)quinazolin-4(3H)-one] | 0.1 to 1 | > 10 | > 10 | > 10 |
| CN1CCC(Nc2ccc3c(=O)n(-c4ccc5nn(C)cc5c4)cnc3c2)CC1 [Compound 163] | > 10 | > 10 | > 10 | > 10 |
| Cn1cc2cc(-c3cc(F)c4c(=O)n(C5CCNC6(CC6)C5)ccc4c3)c(O)cc2n1 (centres unmarked) [Compound 414, 2-{4-azaspiro[2.5]octan-7-yl}-8-fluoro-6-(6-hydroxy-2-methylindazol-5-yl)isoquinolin-1-one] | 0.1 to 1 | > 10 | > 10 | > 10 |
| Cc1cc(-c2cc(F)c3c(=O)n(C4CCNC5(CC5)C4)ccc3c2)cc2cn(C)nc12 (centres unmarked) [Compound 415, 2-{4-azaspiro[2.5]octan-7-yl}-6-(2,7-dimethylindazol-5-yl)-8-fluoroisoquinolin-1-one] | < 0.1 | 0.1 to 1 | 0.1 to 1 | < 0.1 |
| CC(=O)c1cc(-c2cc(F)c3c(=O)n(C4CCNCC4)ccc3c2)cn2cc(C)nc12 [Compound 393, 6-{8-acetyl-2-methylimidazo[1,2-a]pyridin-6-yl}-8-fluoro-2-(piperidin-4-yl)isoquinolin-1-one 2,2,2-trifluoroacetate] | < 0.1 | 1 to 10 | 0.1 to 1 | 0.1 to 1 |

Now from value to compound:

| IC50 (SMN2 mRNA) [µM] | IC50 (Target C [1]) [µM] | GI50 [2] [µM] | IC50 (Target C [3]) [µM] | Compound |
| --- | --- | --- | --- | --- |
| < 0.1 | < 0.1 | < 0.1 | < 0.1 | Cc1cn2nc(-c3ccc4c(=O)n([C@H]5CCNC6(CC6)C5)ccc4c3)cc(C)c2n1 [Compound 445] |
| < 0.1 | 1 to 10 | 1 to 10 | 0.1 to 1 | Cn1cc2nc(-c3ccc4c(=O)n(C5CCNC6(CC6)C5)ncc4c3)ccc2n1 (centres unmarked) [Compound 511] |
| 0.1 to 1 | 0.1 to 1 | 0.1 to 1 | 0.1 to 1 | Cc1cn2cc(-c3cc(F)c4c(=O)n(C5CCOC5)cnc4c3)cc(C#N)c2n1 (stereo in doubt) [Compound 499, (R)-6-(5-fluoro-4-oxo-3-(tetrahydrofuran-3-yl)-3,4-dihydroquinazolin-7-yl)-2-methylimidazo[1,2-a]pyridine-8-carbonitrile] |
| < 0.1 | > 10 | 1 to 10 | > 10 | Cc1cn2cc(-c3ccc4c(=O)n([C@@H]5CCNC5)cc(C)c4c3)cc(F)c2n1 [Compound 452, (R)-6-(8-fluoro-2-methylimidazo[1,2-a]pyridin-6-yl)-4-methyl-2-(pyrrolidin-3-yl)isoquinolin-1(2H)-one] |
| 1 to 10 | > 10 | > 10 | > 10 | Cc1cn2cc(-c3ccc4c(=O)n([C@H]5CCNC5)cc(C)c4c3)cc(C#N)c2n1 [Compound 456, (S)-2-methyl-6-(4-methyl-1-oxo-2-(pyrrolidin-3-yl)-1,2-dihydroisoquinolin-6-yl)imidazo[1,2-a]pyridine-8-carbonitrile] |
| < 0.1 | < 0.1 | 0.1 to 1 | < 0.1 | Cc1cn2nc(-c3cc(F)c4c(=O)n([C@@H]5CCNC6(CC6)C5)ncc4c3)cc(C)c2n1 [Compound 446] |
| 1 to 10 | > 10 | > 10 | > 10 | Cc1cn2cc(-n3ccc4cc(N5C[C@@H](C)N[C@@H](C)C5)ccc4c3=O)nc(C)c2n1 [Compound 454, 2-{2,8-dimethylimidazo[1,2-a]pyrazin-6-yl}-6-[(3R,5S)-3,5-dimethylpiperazin-1-yl]isoquinolin-1-one] |
| > 10 | > 10 | > 10 | > 10 | Cc1cn2c(n1)CCC(c1ccc3c(=O)n(C4CCNCC4)ccc3c1)C2 (centres unmarked) [Compound 453, 6-{2-methyl-5H,6H,7H,8H-imidazo[1,2-a]pyridin-6-yl}-2-(piperidin-4-yl)isoquinolin-1-one] |
| < 0.1 | < 0.1 | < 0.1 | < 0.1 | Cc1cn2nc(-c3cc4ccn(C5CCNCC5)c(=O)c4cc3O)cc(C)c2n1 [Compound 448, 6-{2,8-dimethylimidazo[1,2-b]pyridazin-6-yl}-7-hydroxy-2-(piperidin-4-yl)isoquinolin-1-one] |
